Experimental findings from patent publication US20140045823A1 (Neurocrine Biosciences, Inc., priority 2012, published 2014) are described below.

Molecules are shown by their SMILES.

The assay concerns the target T1, human GPR119 (Homo sapiens, UniProt Q8TDV5).
T1 construct: expression vector for human GPR119 cDNA (Acc. No. NP_848566); expressed in transfected cells; Min-6/hGPR119
T1 sequence (Q8TDV5 1-335): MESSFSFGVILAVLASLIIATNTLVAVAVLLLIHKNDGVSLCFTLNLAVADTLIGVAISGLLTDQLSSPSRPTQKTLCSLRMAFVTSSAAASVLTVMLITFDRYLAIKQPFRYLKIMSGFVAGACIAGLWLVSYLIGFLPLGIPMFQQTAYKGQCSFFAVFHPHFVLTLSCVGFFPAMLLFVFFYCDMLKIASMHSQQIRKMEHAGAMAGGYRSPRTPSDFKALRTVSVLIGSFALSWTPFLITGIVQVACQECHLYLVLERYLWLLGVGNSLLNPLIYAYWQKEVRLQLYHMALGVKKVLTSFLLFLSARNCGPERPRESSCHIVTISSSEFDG
As to the kind of experiment: AlphaScreen cAMP assay in MIN6 cells stably transfected with human GPR119. It is filed as cell-based. Particulars: Min-6/hGPR119 cells, 45 min at room temperature. A digest of the protocol: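 cAMP accumulation quantified by AlphaScreen after 45 min compound stimulation at about 20 °C. Stimulation buffer: pH 7.4 HEPES saline with 0.5 mM IBMX, 0.1% BSA, 1% DMSO final. Cells: MIN6 stably transfected with human GPR119, 10000/well, cultured 24 h beforehand.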
For `CC(C)(C)OC(=O)N1CCC(N(C(=O)c2cc(-c3ccc(C#N)c(F)c3)no2)C2CC2)CC1` [Example 43, 4-{[3-(4-Cyano-3-fluoro-phenyl)-isoxazole-5-carbonyl]-cyclopropyl-amino}-piperidine-1-carboxylic acid tert-butyl ester], a half-maximal response (EC50) required 0.014 µM.
`COCC(C)NC(=O)Cc1ccc(-c2ncc(C(=O)N(C3CC3)C3CCN(C(=O)OC(C)(C)C)CC3)cn2)cc1` (centres unmarked) [Example 198, 4-[Cyclopropyl-(2-{4-[(2-methoxy-1-methyl-ethylcarbamoyl)-methyl]-phenyl}-pyrimidine-5-carbonyl)-amino]-piperidine-1-carboxylic acid tert-butyl ester] yielded a 50% effective concentration (EC50) of 0.715 µM.
In turn, `CC(C)(C)OC(=O)N1CCC(N(C(=O)c2cnc(-c3ccc(S(C)(=O)=O)c(F)c3)o2)C2CC2)CC1` [Example 34, 4-{Cyclopropyl-[2-(3-fluoro-4-methanesulfonyl-phenyl)-oxazole-5-carbonyl]-amino}-piperidine-1-carboxylic acid tert-butyl ester] registered a concentration giving a half-maximal response (EC50) of 0.086 µM. Against the preceding compound, the EC50 is about 8.3-fold lower.
Under `CC(C)(C)OC(=O)N1CCC(N(C(=O)c2cnc(-c3ccc(C(=O)NCc4cccnn4)c(F)c3)nc2)C2CC2)CC1` [Example 232, 4-[Cyclopropyl-(2-{3-fluoro-4-[(pyridazin-3-ylmethyl)-carbamoyl]-phenyl}-pyrimidine-5-carbonyl)-amino]-piperidine-1-carboxylic acid tert-butyl ester] stands 0.422 µM; under `CC(C)(C)OC(=O)N1CCC(N(C(=O)c2cnc(-c3ccc(C(=O)NCC4(C)CCCO4)c(F)c3)nc2)C2CC2)CC1` (centres unmarked) [Example 144, 4-[Cyclopropyl-(2-{3-fluoro-4-[(2-methyl-tetrahydro-furan-2-ylmethyl)-carbamoyl]-phenyl}-pyrimidine-5-carbonyl)-amino]-piperidine-1-carboxylic acid tert-butyl ester], 0.23 µM.
Next, `CC(C)(C)OC(=O)N1CCC(N(C(=O)c2cnc(-c3ccc(C(=O)NCC4CCCO4)cc3)nc2)C2CC2)CC1` (centres unmarked) [Example 244, 4-[Cyclopropyl-(2-{4-[(tetrahydro-furan-2-ylmethyl)-carbamoyl]-phenyl)-pyrimidine-5-carbonyl)-amino]-piperidine-1-carboxylic acid tert-buyl ester]: 0.237 µM; `COc1cccc(-c2ncc(C(=O)N(C3CC3)C3CCN(C(=O)OC(C)(C)C)CC3)cn2)c1` [Example 74, 4-{Cyclopropyl-[2-(3-methoxy-phenyl)-pyrimidine-5-carbonyl]-amino}-piperidine-1-carboxylic acid tert-butyl ester]: 1.01 µM.
`CC(C)(C)OC(=O)N1CCC(N(C(=O)c2cnc(-c3ccc(CC(=O)NCCOC(F)(F)F)cc3)nc2)C2CC2)CC1` [Example 191, 4-[Cyclopropyl-(2-{4-[(2-trifluoromethoxy-ethylcarbamoyl)-methyl]-phenyl}-pyrimidine-5-carbonyl)-amino]-piperidine-1-carboxylic acid tert-butyl ester] registered a concentration for a half-maximal effect (EC50) of 0.42 µM.
Under `CN(Cc1ccncc1)C(=O)c1ccc(-c2ncc(C(=O)N(C3CC3)C3CCN(C(=O)OC(C)(C)C)CC3)cn2)cc1` [Example 170, 4-(Cyclopropyl-{2-[4-(methyl-pyridin-4-ylmethyl-carbamoyl)-phenyl]-pyrimidine-5-carbonyl}-amino)-piperidine-1-carboxylic acid tert-butyl ester] stands 0.208 µM.
Next, `Cc1nc(-c2ccc(C#N)cc2F)sc1C(=O)N(C1CC1)C1CCN(C(=O)OC(C)(C)C)CC1` [Example 48, 4-{[2-(4-Cyano-2-fluoro-phenyl)-4-methyl-thiazole-5-carbonyl]-cyclopropyl-amino}-piperidine-1-carboxylic acid tert-butyl ester]: 1.34 µM; `COCCN(C)C(=O)c1ccc(-c2ncc(C(=O)N(C3CC3)C3CCN(C(=O)OC(C)(C)C)CC3)cn2)cc1` [Example 196, 4-[Cyclopropyl-(2-{4-[(2-methoxy-ethyl)-methyl-carbamoyl]-phenyl}-pyrimidine-5-carbonyl)-amino]-piperidine-1-carboxylic acid tert-butyl ester]: 0.215 µM.
`CC(C)(C)OC(=O)N1CCC(N(C(=O)c2cnc(-c3cccnc3)nc2)C2CC2)CC1` [Example 70, 4-[Cyclopropyl-(2-pyridin-3-yl-pyrimidine-5-carbonyl)-amino]-piperidine-1-carboxylic acid tert-butyl ester]: the EC50 is 0.489 µM.
The compound `CN(C(=O)c1ccc(-c2ncc(C(=O)N(C3CC3)C3CCN(C(=O)OC(C)(C)C)CC3)cn2)cc1)C1CCCOC1` (centres unmarked) [Example 222, 4-[Cyclopropyl-(2-{4-[methyl-(tetrahydro-pyran-3-yl)-carbamoyl]-phenyl}-pyrimidine-5-carbonyl)-amino]-piperidine-1-carboxylic acid tert-butyl ester] returned an EC50 of 0.545 µM. The EC50 values of the last two compounds are within 1.5-fold of each other.
Consider `CC(C)(C)OC(=O)N1CCC(N(C(=O)c2cnc(-n3cnc(CO)c3)nc2)C2CC2)CC1` [Example 94, 4-{Cyclopropyl-[2-(4-hydroxymethyl-imidazol-1-yl)-pyrimidine-5-carbonyl]-amino}-piperidine-1-carboxylic acid tert-butyl ester], for which the EC50 amounted to 0.349 µM. Compared with the last compound, the EC50 is about 1.6-fold lower.
Next, `CC(C)(C)OC(=O)N1CCC(N(C(=O)c2cnc(-c3ccc(C(=O)NCc4cocn4)cc3)nc2)C2CC2)CC1` [Example 228, 4-[Cyclopropyl-(2-{4-[(oxazol-4-ylmethyl)-carbamoyl]-phenyl}-pyrimidine-5-carbonyl)-amino]-piperidine-1-carboxylic acid tert-butyl ester]: 0.379 µM; `CC(C)(C)OC(=O)N1CCC(N(C(=O)c2cnc(-c3ccc(C(=O)Nc4ccccc4)cc3)nc2)C2CC2)CC1` [Example 183, 4-{Cyclopropyl-[2-(4-phenylcarbamoyl-phenyl)-pyrimidine-5-carbonyl]-amino}-piperidine-1-carboxylic acid tert-butyl ester]: 0.063 µM.
Under `CC(C)(C)OC(=O)N1CCC(N(C(=O)c2cc(-c3ccc(C#N)cc3)on2)C2CC2)CC1` [Example 38, 4-{-[5-(4-Cyano-phenyl)-isoxazole-3-carbonyl]-cyclopropyl-amino}-piperidine-1-carboxylic acid tert-butyl ester] stands 0.009 µM; under `CC(C)(C)OC(=O)N1CCC(N(C(=O)c2cnc(-c3ccc(CC(=O)Nc4ccccc4)cc3)nc2)C2CC2)CC1` [Example 180, 4-{Cyclopropyl-[2-(4-phenylcarbamoylmethyl-phenyl)-pyrimidine-5-carbonyl]-amino}-piperidine-1-carboxylic acid tert-butyl ester], 0.289 µM; under `CC(C)(C)OC(=O)N1CCC(N(C(=O)c2coc(-c3ccc(C#N)cc3F)n2)C2CC2)CC1` [Example 23, 4-{[2-(4-Cyano-2-fluoro-phenyl)-oxazole-4-carbonyl]-cyclopropyl-amino}-piperidine-1-carboxylic acid tert-butyl ester], 0.018 µM.
Next, `CC(C)(C)OC(=O)N1CCC(N(C(=O)c2cnc(-c3ccc(C(=O)NCc4cocn4)c(F)c3)nc2)C2CC2)CC1` [Example 151, 4-[Cyclopropyl-(2-{3-fluoro-4-[(oxazol-4-ylmethyl)-carbamoyl]-phenyl}-pyrimidine-5-carbonyl)-amino]-piperidine-1-carboxylic acid tert-butyl ester]: 0.123 µM; `CC(C)(C)OC(=O)N1CCC(N(C(=O)c2cnc(-c3ccc(C(=O)Nc4ccnnc4)cc3)nc2)C2CC2)CC1` [Example 231, 4-(Cyclopropyl-{2-[4-(pyridazin-4-ylcarbamoyl)-phenyl]-pyrimidine-5-carbonyl}-amino)-piperidine-1-carboxylic acid tert-butyl ester]: 0.414 µM.
For the compound `CC(C)(C)OC(=O)N1CCC(N(C(=O)c2cnc(-c3ccc(C#N)nc3)nc2)C2CC2)CC1` [Example 83, 4-{[2-(6-Cyano-pyridin-3-yl)-pyrimidine-5-carbonyl]-cyclopropyl-amino}-piperidine-1-carboxylic acid tert-butyl ester], the EC50 worked out at 0.015 µM.
Take `CC(C)(C)OC(=O)N1CCC(N(C(=O)c2cnc(-c3ccc(CC(=O)N4CCCOCC4)cc3)nc2)C2CC2)CC1` [Example 192, 4-(Cyclopropyl-{2-[4-(2-[1,4]oxazepan-4-yl-2-oxo-ethyl)-phenyl]-pyrimidine-5-carbonyl}-amino)-piperidine-1-carboxylic acid tert-butyl ester]: the half-maximal effective concentration (EC50) came to 0.421 µM.
Next, `CN(CC(C)(C)O)C(=O)c1ccc(-c2ncc(C(=O)N(C3CC3)C3CCN(C(=O)OC(C)(C)C)CC3)cn2)cc1` [Example 223, 4-[Cyclopropyl-(2-{4-[(2-hydroxy-2-methyl-propyl)-methyl-carbamoyl]-phenyl}-pyrimidine-5-carbonyl)-amino]-piperidine-1-carboxylic acid tert-butyl ester]: 0.634 µM; `CC(C)(C)OC(=O)N1CCC(N(C(=O)c2cnc(-n3cccn3)nc2)C2CC2)CC1` [Example 56, 4-[Cyclopropyl-(2-pyrazol-1-yl-pyrimidine-5-carbonyl)-amino]-piperidine-1-carboxylic acid tert-butyl ester]: 2.78 µM.
The compound `CC(C)(C)OC(=O)N1CCC(N(C(=O)c2cnc(-c3ccc(CO)cc3)nc2)C2CC2)CC1` [Example 81, 4-{Cyclopropyl-[2-(4-hydroxymethyl-phenyl)-pyrimidine-5-carbonyl]-amino}-piperidine-1-carboxylic acid tert-butyl ester] gave an EC50 of 0.098 µM.
